Drawing on patent US6342602B1, “Aryl or heteroaryl amides of tetrahydronaphthalene, chroman, thichroman and 1,2,3,4-tetrahydroquinolinecarboxlic acids, having an electron withdrawing substituent in the aromatic or heteroaromatic moiety, having retinoid-like biological activity” (Allergan Sales, Inc., priority 1995, dated 2002), this text covers Kd for 14 molecules.

Read-outs that look alike come from different tables or passages of the source.

Holding throughout (experiment): Ligand binding assay
One test addresses T1, RARα (Homo sapiens, UniProt P10276).
T1 construct: made in house; used as extract protein
T1 sequence (P10276 1-462): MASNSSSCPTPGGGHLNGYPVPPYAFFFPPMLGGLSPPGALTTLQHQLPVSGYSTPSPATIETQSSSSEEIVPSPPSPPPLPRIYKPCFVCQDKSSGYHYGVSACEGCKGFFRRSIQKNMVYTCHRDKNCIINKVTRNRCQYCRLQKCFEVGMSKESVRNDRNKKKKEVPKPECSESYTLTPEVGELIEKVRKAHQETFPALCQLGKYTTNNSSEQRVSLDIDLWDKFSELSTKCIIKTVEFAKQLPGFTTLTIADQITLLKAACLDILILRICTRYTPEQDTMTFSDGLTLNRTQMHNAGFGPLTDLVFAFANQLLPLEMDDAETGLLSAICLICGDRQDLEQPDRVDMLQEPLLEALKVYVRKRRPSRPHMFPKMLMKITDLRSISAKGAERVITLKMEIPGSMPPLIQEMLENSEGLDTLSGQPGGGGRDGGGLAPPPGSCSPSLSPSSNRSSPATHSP
How it is done: (§1) A holoreceptor transactivation assay and a ligand binding assay which measure the ability of the compounds of the invention to bind to the several retinoid receptor subtypes, respectively, are described in published PCT Application No. WO WO93/11755 (particularly on pages 30-33 and 37-41) published on Jun. 24, 1993, the specification of which is also incorporated herein by reference. A description of the ligand binding assay is also provided below.
(§2) All binding assays were performed in a similar fashion. All six receptor types were derived from the expressed receptor type (RAR α, β, τ and RXR α, β, τ) expressed in Baculovirus. Stock solutions of all compounds were prepared as 10 mM ethanol solutions and serial dilutions carried out into 1:1 DMSO; ethanol. Assay buffers consisted of the following for all six receptor assays: 8% glycerol, 120 mM KCl, 8 mM Tris, 5 mM CHAPS 4 mM DTT and 0.24 mM PMSF, pH-7.4@room temperature.
(§3) All receptor biding assays were performed in the same manner. The final assay volume was 250 μl and contained from […] of extract protein depending on receptor being assayed along with 5 nM of [^3H) alltrans retinoic acid or 10 nM [^3H) 9-cis retinoic acid and varying concentrations of competing ligand at concentrations that ranged from 0-10^−5 M. The assays were formatted for a 96 well minitube system. Incubations were carried out at 4° C. until equilibrium was achieved. Non-specific binding was defined as that binding remaining in the presence of 1000 nM of the appropriate unlabeled retinoic acid isomer. At the end of the incubation period, 50 μl of 6.25% hydroxyapitite was added in the appropriate wash buffer. The wash buffer consisted of 100 mM KCl, 10 mM Tris and either 5 mM CHAPS (RXR α, β, τ) or 0.5% Triton X-100 (RAR α, β, τ). The mixture was vortexed and incubated for 10 minutes at 4° C., centrifuged and the supernatant removed. The hydroxyapitite was washed three more times with the appropriate wash buffer. The receptor-ligand complex was adsorbed by the hydroxyapitite. The amount of receptor-ligand complex was determined by liquid scintillation counting of hydroxyapitite pellet.
(§4) After correcting for non-specific binding, IC50 values were determined. […] The IC50 value was determined graphically from a loglogit plot of the data. The Kd values were determined by application of the ChengPrussof equation to the IC50 values, the labeled ligand concentration and the Kd of the labeled ligand.
(§5) The results of ligand binding assay are expressed in Kd numbers. (See Cheng et al. Biochemical Pharmacology Vol. 22 pp 3099-3108, expressly incorporated herein by reference.)

In a further test the target is T2, RARβ (Homo sapiens, UniProt P10826).
T2 construct: made in house; used as extract protein
T2 sequence (P10826 1-455): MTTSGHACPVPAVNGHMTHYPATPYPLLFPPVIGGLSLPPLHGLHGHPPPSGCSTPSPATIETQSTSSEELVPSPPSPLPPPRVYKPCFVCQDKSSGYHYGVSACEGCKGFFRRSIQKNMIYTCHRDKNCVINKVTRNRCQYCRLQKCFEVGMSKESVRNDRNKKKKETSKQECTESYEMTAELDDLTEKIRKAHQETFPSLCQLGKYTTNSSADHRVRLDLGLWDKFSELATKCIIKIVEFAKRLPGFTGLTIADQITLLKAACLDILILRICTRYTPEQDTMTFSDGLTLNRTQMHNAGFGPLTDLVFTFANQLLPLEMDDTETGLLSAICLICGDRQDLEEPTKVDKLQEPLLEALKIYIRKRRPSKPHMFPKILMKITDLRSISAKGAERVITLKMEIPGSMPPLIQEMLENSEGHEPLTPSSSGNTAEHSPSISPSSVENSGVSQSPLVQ
Conditions: receptor expressed in Baculovirus; competition with [3H] retinoic acid; Cheng-Prusoff from IC50. How it is done: as §1, §2, §3, §4, §5

The next test deals with T3, RXRΓ (Homo sapiens, UniProt P48443).
T3 construct: made in house; used as extract protein
T3 sequence (P48443 1-463): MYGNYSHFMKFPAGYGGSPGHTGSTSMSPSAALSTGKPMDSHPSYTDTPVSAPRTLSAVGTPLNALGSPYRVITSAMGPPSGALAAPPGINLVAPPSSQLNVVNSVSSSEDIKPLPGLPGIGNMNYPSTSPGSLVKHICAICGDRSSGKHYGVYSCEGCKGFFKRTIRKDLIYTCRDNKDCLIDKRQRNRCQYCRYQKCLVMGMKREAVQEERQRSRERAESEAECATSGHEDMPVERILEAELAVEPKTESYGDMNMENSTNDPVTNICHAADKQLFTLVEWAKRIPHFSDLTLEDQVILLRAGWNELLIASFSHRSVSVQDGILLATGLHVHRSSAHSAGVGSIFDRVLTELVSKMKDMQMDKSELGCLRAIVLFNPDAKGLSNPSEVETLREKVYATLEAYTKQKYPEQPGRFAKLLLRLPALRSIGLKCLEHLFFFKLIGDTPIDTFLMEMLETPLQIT
Particulars: receptor expressed in Baculovirus; competition with [3H] retinoic acid; Cheng-Prusoff from IC50. How it is done: as §1, §2, §3, §4, §5

The target in the next test is T4, RXRβ (Homo sapiens, UniProt P28702).
T4 construct: made in house; used as extract protein
T4 sequence (P28702 1-533): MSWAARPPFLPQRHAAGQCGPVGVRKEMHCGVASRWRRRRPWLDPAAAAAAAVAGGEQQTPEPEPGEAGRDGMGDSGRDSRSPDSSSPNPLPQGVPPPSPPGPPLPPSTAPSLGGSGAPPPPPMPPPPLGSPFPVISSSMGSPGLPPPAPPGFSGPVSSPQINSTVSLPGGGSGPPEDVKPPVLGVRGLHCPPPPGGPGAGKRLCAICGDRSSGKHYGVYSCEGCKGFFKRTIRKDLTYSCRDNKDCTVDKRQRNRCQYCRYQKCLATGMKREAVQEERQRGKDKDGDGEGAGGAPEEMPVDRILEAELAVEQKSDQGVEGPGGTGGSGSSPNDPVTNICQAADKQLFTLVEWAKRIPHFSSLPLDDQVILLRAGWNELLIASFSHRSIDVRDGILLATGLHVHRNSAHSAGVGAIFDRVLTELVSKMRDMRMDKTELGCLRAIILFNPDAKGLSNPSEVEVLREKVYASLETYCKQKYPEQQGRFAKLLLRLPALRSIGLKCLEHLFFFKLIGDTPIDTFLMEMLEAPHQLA
Conditions: receptor expressed in Baculovirus; competition with [3H] retinoic acid; Cheng-Prusoff from IC50. How it is done: as §1, §2, §3, §4, §5

The mark [1] stands for this setting: receptor expressed in Baculovirus, competition with [3H] retinoic acid, Cheng-Prusoff from IC50, read-out: Kd RARα.

Usually Kd stands for the equilibrium constant for the complex coming apart. On to `CC1(C)CC(C)(C)c2cc(C(=O)Nc3ccc(C(=O)O)c(F)c3)cc(I)c2O1` [Compound 20], for which the Kd on RARα (setting [1]) is 0.016 µM; on RARβ, above 1 µM; at RXRΓ, above 1 µM; at RXRβ it was above 1 µM.
Consider `CC1(C)CC(C)(C)c2cc(C(=O)Nc3ccc(C(=O)O)c(F)c3)cc(C(F)(F)F)c2O1` [Compound 14], for which the Kd on RARα (setting [1]) was 0.014 µM; on RARβ, above 1 µM; on RXRΓ, above 1 µM; on RXRβ, above 1 µM.
On to `CC1(C)CCC(C)(C)c2cc(C(=O)Nc3cc(F)c(C(=O)O)c(F)c3)ccc21` [Compound 38], for which the Kd at RARα (setting [1]) is 0.009 µM; on RARβ, above 1 µM; on RXRΓ it was above 1 µM; on RXRβ it was above 1 µM.
As to `CC1(C)CCC(C)(C)c2c1cc(C(=O)Nc1cc(F)c(C(=O)O)c(F)c1)c(O)c2Br` [Compound 36], the Kd on RARα is 0.0023 µM; at RARβ, above 1 µM; at RXRΓ it was above 1 µM; at RXRβ, above 1 µM.
`CC1(C)CCC(C)(C)c2c(Br)cc(C(=O)Nc3ccc(C(=O)O)c(F)c3)cc21` [Compound 6]: the Kd is 0.0013 µM at RARα (setting [1]), above 1 µM at RARβ, above 1 µM at RXRΓ and above 1 µM on RXRβ.
`CC1(C)CC(C)(C)c2cc(C(=O)Nc3cc(F)c(C(=O)O)c(F)c3)cc(C(F)(F)F)c2O1` [Compound 18, 2,6-Difluoro-4-[(2′,2′,4′,4′-tetramethyl-8′-trifluoromethylchroman-6′-yl)carbamoyl]benzoic Acid]: the Kd at RARα (setting [1]) was 0.051 µM; on RARβ, above 1 µM; on RXRΓ, above 1 µM; at RXRβ, above 1 µM.
Take `CC1(C)CCC(C)(C)c2cc(C(=O)Nc3ccc(C(=O)O)c(F)c3)ccc21` [Compound 2]: the Kd on RARα (setting [1]) was 0.0019 µM; on RARβ it was 0.48 µM; on RXRΓ, above 1 µM; at RXRβ it was above 1 µM.
In the case of `CC1(C)CCC(C)(C)c2cc(C(=O)Nc3ccc(C(=O)O)c(F)c3)c(O)cc21` [Compound 8], the Kd at RARα (setting [1]) is 0.003 µM; on RARβ, above 1 µM; at RXRΓ it was above 1 µM; at RXRβ, above 1 µM.
In the case of `CC1(C)CC(C)(C)c2cc(C(=O)Nc3ccc(C(=O)O)c(F)c3)cc(Br)c2O1` [Compound 12], the Kd is 0.024 µM at RARα (setting [1]), above 1 µM on RARβ, above 1 µM on RXRΓ and above 1 µM at RXRβ.
As to `CC1(C)CCC(C)(C)c2cc(C(=S)Nc3ccc(C(=O)O)cc3)ccc21` [Compound 26], the Kd was 0.015 µM on RARα (setting [1]), above 1 µM on RARβ, above 1 µM at RXRΓ and above 1 µM at RXRβ.
Regarding `CC1(C)CC(C)(C)c2cc(C(=O)Nc3ccc(C(=O)O)c(F)c3)cc(N=[N+]=[N-])c2O1` [Compound 16, 2-Fluoro-4-[(21′,2′,4′,4′-tetramethyl-8′-azidochroman-6′-yl)carbamoyl]benzoic Acid], the Kd on RARα (setting [1]) was 0.052 µM; at RARβ, above 1 µM; at RXRΓ it was above 1 µM; at RXRβ it was above 1 µM.
Regarding `CC1(C)CC(C)(C)c2cc(C(=O)Nc3ccc(C(=O)O)c(F)c3)ccc2O1` [Compound 32], the Kd is 0.162 µM on RARα (setting [1]), above 1 µM at RARβ, above 1 µM at RXRΓ and above 1 µM at RXRβ.
Regarding `CC1(C)CCC(C)(C)c2cc(C(=O)Nc3ccc(C(=O)O)cc3)c(F)cc21` [Compound 4], the Kd is 0.023 µM on RARα (setting [1]), 0.023 µM on RARβ, above 1 µM at RXRΓ and above 1 µM on RXRβ.
On to `Cc1cc(C(=O)Nc2ccc(C(=O)O)c(F)c2)cc2c1OC(C)(C)CC2(C)C` [Compound 22], for which the Kd on RARα (setting [1]) was 0.057 µM; on RARβ it was above 1 µM; on RXRΓ it was above 1 µM; on RXRβ, above 1 µM.
